Measurements reported in patent US7482008B1, “Human T cell reactive feline protein (TRFP) isolated from house dust and uses therefor” (Merck Patent GmbH, priority 1989, dated 2009).
Blank lines part the entries; values can stand above or below the substance they belong to.

What was measured:
[1] = system: human IgE (cat allergic patient plasma); assay: Dot blot assay of human IgE binding; conditions: percent of cat allergic patients with positive IgE binding
Description: TRFP was coated at 2, 0.2 and 0.02 μg/dot and the peptides at 10, 1 and 0.1 μg/dot. Wells were then washed with 200 μl PBS. After equilibration of blots with Tween solution, (Tris-HCL; pH 7.5 0.025M NaCl 0.17 m Tween-20 0.5%) all sections were blocked with 1% nonfat dry milk, 1% fetal calf serun/Tween solution for 1-1.5 hour. Patient plasma was used at 10% (v/v) in 1% milt/Tween solution and preabsorbed on blank strips of nitrocellulose for 1 hour. After preabsorption, the diluted patient plasma sample was incubated with the antigen bearing dot blot overnight at room temperature (RT). Nitrocellulose dot blot was incubated in biotinylated goat anti-human IgE (1:2500) in Tween solution for 2 hours RT. After washing, the sections were incubated in 1 μCi ^125I-Streptavidin, 1 hour. Following removal of unbound label by extensive washing, the blots were exposed to film for 16 hours.

Fel d I primed mice = assay: Peptide Y s.c. in Fel d I primed mice, IL-2 production of lymph node cells; type: in vivo, mouse; conditions: injected subcutaneously up to fifty-six days earlier; compared to control mice
mice = assay: Specificity of peptide-induced unresponsiveness (peptide Y vs MI-05); type: in vivo, mouse; conditions: subcutaneous injection in saline
B6CBAF1 mice = assay: Tolerization s.c. then challenge with recombinant chain 1 of TRFP, chain 1 specific IL-2 production; type: in vivo, mouse; conditions: 150 μg/dose s.c. days 0 and 5; challenge 100 μg recombinant chain 1 in CFA
Description: The mice were injected with 150 μg/dose of either the TRFP chain 1 or each of the peptides (days 0 and 5). The PBS alone and the PBS/peptides were injected in 300 μl/dose. The PBS/chain 1 of the TRFP protein was injected in 100 μl/dose. All tolerizing doses were at a single site under the dorsal skin between the forelimbs. On day 10 all of the animals received a challenge injection of 100 μg recombinant chain 1 of TRFP in 200 μl CFA as described above. On day 20 the animals were sacrificed and draining lymph nodes were removed as described above. The lymph node cells were suspended, rinsed, and cultured as above with or without 150 μg/ml recombinant chain 1 of TRFP. The lymph node cell cultures in this experiment were each 0.1 ml. The supernatants from the cultures were assayed for IL-2 as described above.

Balb/c mice = assay: Oral rChain 1, antibody response ELISA, protocol 2; type: in vivo, mouse
Description: Four groups of five age-matched Balb/c 6- to 10-week-old female mice (The Jackson Laboratory, Bar Harbor, Me.) were fed on days −7, −5 and −2 with 250 μg cleaved, purified, recombinant TRFP Chain 1 (rChain) (Groups 1 and 3) or with PBS (Groups 2 and 4). On day 0, the mice in Groups 1 and 2 were challenged with an intraperitoneal (i.p.) injection of 10 μg rChain 1 in alum, while the mice in Groups 3 and 4 were challenged on day 0 with an i.p. injection of 100 μg rChain 1 in CFA. […]
Subsequent incubations were for 1 hour at 37° C. The wells were washed with PBS containing 0.05% Tween 20 and blocked with 0.5% gelatin in PBS. Sera were diluted in PBS as noted in the individual assay and were incubated in triplicate on the washed plates. After incubation and washing, the bound mouse antibody was detected by incubation with biotinylated goat anti-mouse IgG (Southern Biotechnology Ass.). […] 3,3′,5,5′-Tetramethylbenzidine peroxidase substrate (Kirkegaard & Perry Labs) was used according to directions supplied, and resulting OD (450 nm) values were determined using an ELISA reader (Bio-Tek model 310, Winooski, Vt.). […]
Antigen-bound IgE was detected similarly except using a biotinylated rat monoclonal antibody specific for mouse IgE (Baniyash et al. (1984) Eur. J. Immunol. 14:799-807). […]

- Positive Binding [1]: 100%
Substance: TRFP: human T cell reactive feline protein affinity purified from house dust; two covalently linked chains

Substance: peptide Y: amino acid residues 29-55 from chain 1 of TRFP (SEQ. ID. NO: 18) (KALPVVLENARILKNCVDAKMTEEDKE)
- IL-2 production of lymph node cells (Fel d I primed mice): decreased IL-2 production
- responses to MI-05 (mice): did not affect responses to MI-05
- responsiveness to peptide Y (mice): decreased responsiveness to peptide Y

Substance: recombinant chain 1: recombinant TRFP chain 1 expressed in E. coli
- IL-2 production specific for chain 1 of TRFP (B6CBAF1 mice): effective in decreasing IL-2 production
- IgE binding to rChain 1 (Balb/c mice; 92 days after challenge, compared to PBS): less IgE binding to rChain 1
- IgG response to rChain 1 (Balb/c mice; oral administration, up to 100 days after treatment): depressed level of IgG response
